Experimental data published in US9174980B2, “Heterocyclic compounds as inhibitors of leukotriene production” (Boehringer Ingelheim International GmbH, priority 2012, dated 2015).

Assays:
[1] = test system: synthesis of LTB4 in human whole blood; experiment: Human whole blood assay (calcimycin-stimulated LTB4 synthesis); format: cell-based; conditions: Homo sapiens; read-out: Human Whole Blood LTB4 Assay for FLAP (IC50 nM)
Description: Compounds are additionally tested in a human whole blood assay to determine their ability to inhibit the synthesis of LTB4 in a cellular system. Compounds are combined with heparinized human whole blood and incubated for 15 minutes at 37° C. Calcimycin (20 μM final, prepared in phosphate-buffered saline, pH 7.4) is then added and the mixture is incubated for another 30 minutes at 37° C. The samples are centrifuged for 5 min at low speed (1500×g) and the plasma layer is removed. Plasma LTB4 concentrations are then measured using an antibody-based homogenous time-resolved fluorescence method (CisBio, Bedford, Mass.).

[2] = target: T1, recombinant human FLAP protein (Homo sapiens, UniProt P20292); experiment: FLAP binding assay (Scintillation Proximity Assay, displacement of [125I]L-691,831); conditions: read-out: Human FLAP SPA Binding (IC50 nM)
T1 construct: made in house; host or cells: Sf9 insect cells (membrane fraction, 100,000 x g pellet)
T1 sequence (P20292 1-161): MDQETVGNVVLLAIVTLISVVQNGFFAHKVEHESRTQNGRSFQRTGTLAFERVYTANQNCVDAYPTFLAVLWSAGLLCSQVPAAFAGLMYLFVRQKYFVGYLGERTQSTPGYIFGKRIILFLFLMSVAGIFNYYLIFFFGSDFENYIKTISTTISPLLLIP
Description: Compounds are assessed for the ability to bind to FLAP in a binding assay that measures compound-specific displacement of an iodinated (^125I) FLAP inhibitor via a Scintillation Proximity Assay format (adapted from S. Charleson et al., Mol. Pharmacol., 1992, 41, 873-879).
Cell pellets produced from sf9 insect cells expressing recombinant human FLAP protein are resuspended in buffer A [15 mM Tris-HCl (pH 7.5), 2 mM MgCl2, 0.3 mM EDTA, 1 mM PMSF]. The cells are lysed with a Dounce homogenizer and the material is centrifuged at 10,000×g for 10 minutes. The supernatant is then collected and centrifuged at 100,000×g for 60 minutes. To prepare membrane protein for an assay, an aliquot of the 100,000×g pellet is resuspended in 1 ml of buffer A, Dounce homogenized, and finally subjected to polytron mixing (30 seconds). Membrane protein (25 μl, 5 μg) is mixed with WGA SPA beads (Amersham) and stirred for 1 h. To an assay plate (Perkin Elmer FlexiPlate) is added 25 μl of test compound prepared in Binding buffer [100 mM Tris (pH 7.5), 140 mM NaCl, 5% glycerol, 2 mM EDTA, 0.5 mM TCEP, 0.05% Tween 20], 25 μl of [^125I]L-691,831 (an iodinated analog of MK-591, Charleson et al. Mol. Pharmacol., 41, 873-879, 1992) and finally 50 μl of the bead/protein mixture. (final concentrations: beads, 200 μg/well; protein, 5 μg/well; [^125I] probe, 0.08 nM/well (17 nCi/well). The plates are shaken for 2 h before reading on a Microbeta plate reader. Non-specific binding is determined by the addition of 10 μM cold L-691,831 compound.

Row | SMILES | IC50 [1] | IC50 [2]
1 | Nc1ncc(-c2ccc(C3(c4c[nH]c5cc(C(=O)NC6CCS(=O)(=O)C6)ccc45)CCC3)cc2)cn1 (stereo not shown) [Example 1, 3-{1-[4-(2-aminopyrimidin-5-yl)phenyl]cyclobutyl}-N-(1,1-dioxidotetrahydrothiophen-3-yl)-1H-indole-6-carboxamide] | 1300 nM | 1.3 nM
2 | CN(CCS(C)(=O)=O)C(=O)c1cccc2c(C3(c4ccc(-c5cnc(N)nc5)cc4)CCC3)c[nH]c12 [Example 2, 3-{1-[4-(2-aminopyrimidin-5-yl)phenyl]cyclobutyl}-N-methyl-N-[2-(methylsulfonyl)ethyl]-1H-indole-7-carboxamide] | 490 nM | 1.9 nM
3 | CS(=O)(=O)CCNC(=O)c1cccc2c(C3(c4ccc(-c5cnc(N)nc5)cc4)CCC3)c[nH]c12 [Example 3, 3-{1-[4-(2-aminopyrimidin-5-yl)phenyl]cyclobutyl}-N-[2-(methylsulfonyl)ethyl]-1H-indole-7-carboxamide] | 490 nM | 1.4 nM
4 | Nc1ncc(-c2ccc(C3(c4c[nH]c5c(C(=O)NCCS(N)(=O)=O)cccc45)CCC3)cc2)cn1 [Example 4, 3-{1-[4-(2-aminopyrimidin-5-yl)phenyl]cyclobutyl}-N-(2-sulfamoylethyl)-1H-indole-7-carboxamide] | 2800 nM | 1.2 nM
5 | Nc1ncc(-c2ccc(C3(c4c[nH]c5c(C(=O)NC6CCS(=O)(=O)C6)cccc45)CCC3)cc2)cn1 (stereo not shown) [Example 5, 3-{1-[4-(2-aminopyrimidin-5-yl)phenyl]cyclobutyl}-N-(1,1-dioxidotetrahydrothiophen-3-yl)-1H-indole-7-carboxamide] | 220 nM | 0.72 nM
6 | CNC(=O)c1cccc2c(C3(c4ccc(-c5cnc(N)nc5)cc4)CCC3)c[nH]c12 [Example 6, 3-[1-[4-(2-aminopyrimidin-5-yl)phenyl]cyclobutyl]-N-methyl-1H-indole-7-carboxamide] | 29 nM | 1.5 nM
7 | CN(C)C(=O)c1cccc2c(C3(c4ccc(-c5cnc(N)nc5)cc4)CCC3)c[nH]c12 [Example 7, 3-{1-[4-(2-aminopyrimidin-5-yl)phenyl]cyclobutyl}-N,N-dimethyl-1H-indole-7-carboxamide] | 210 nM | 2.1 nM
8 | Cc1ccc(-c2coc(C3(c4ccc(-c5cnc(N)nc5)cc4)CCC3)n2)cn1 [Example 8, 5-(4-{1-[4-(6-methylpyridin-3-yl)-1,3-oxazol-2-yl]cyclobutyl}phenyl)pyrimidin-2-amine] | 410 nM | 2.8 nM
9 | Cc1nc(CNC(=O)c2cccc3c(C4(c5ccc(-c6cnc(N)nc6)cc5)CCC4)c[nH]c23)no1 [Example 9, 3-{1-[4-(2-aminopyrimidin-5-yl)phenyl]cyclobutyl}-N-[(5-methyl-1,2,4-oxadiazol-3-yl)methyl]-1H-indole-7-carboxamide] | 27 nM | 2.2 nM
10 | CCc1nc(CN(C)C(=O)c2cccc3c(C4(c5ccc(-c6cnc(N)nc6)cc5)CCC4)c[nH]c23)no1 [Example 10, 3-{1-[4-(2-aminopyrimidin-5-yl)phenyl]cyclobutyl}-N-[(5-ethyl-1,2,4-oxadiazol-3-yl)methyl]-N-methyl-1H-indole-7-carboxamide] | 340 nM | 2.4 nM
11 | Cc1nnc(CN(C)C(=O)c2cccc3c(C4(c5ccc(-c6cnc(N)nc6)cc5)CCC4)c[nH]c23)o1 [Example 11, 3-{1-[4-(2-aminopyrimidin-5-yl)phenyl]cyclobutyl}-N-methyl-N-[(5-methyl-1,3,4-oxadiazol-2-yl)methyl]-1H-indole-7-carboxamide] | 230 nM | 3.3 nM
12 | CCc1noc(CN(CC)C(=O)c2cccc3c(C4(c5ccc(-c6cnc(N)nc6)cc5)CCC4)c[nH]c23)n1 [Example 12, 3-{1-[4-(2-aminopyrimidin-5-yl)phenyl]cyclobutyl}-N-ethyl-N-[(3-ethyl-1,2,4-oxadiazol-5-yl)methyl]-1H-indole-7-carboxamide] | 680 nM | 2.7 nM
13 | Cc1cc(CN(C)C(=O)c2cccc3c(C4(c5ccc(-c6cnc(N)nc6)cc5)CCC4)c[nH]c23)[nH]n1 [Example 13, 3-{1-[4-(2-aminopyrimidin-5-yl)phenyl]cyclobutyl}-N-methyl-N-[(3-methyl-1H-pyrazol-5-yl)methyl]-1H-indole-7-carboxamide] | 320 nM | 1.4 nM
14 | Cc1ccc(-c2cnc(C3(c4ccc(-c5cnc(N)nc5)cc4)CCC3)[nH]2)cn1 [Example 14, 5-(4-{1-[5-(6-methylpyridin-3-yl)-1H-imidazol-2-yl]cyclobutyl}phenyl)pyrimidin-2-amine] | > 5000 nM | 30 nM
15 | Cc1ccc(-c2cnc(C3(c4ccc(-c5cnc(N)nc5)cc4)CCC3)s2)cn1 [Example 15, 5-(4-{1-[5-(6-methylpyridin-3-yl)-1,3-thiazol-2-yl]cyclobutyl}phenyl)pyrimidin-2-amine] | 220 nM | 1.8 nM
16 | Cc1ccc(-c2cnc(C3(c4ccc(-c5cnc(N)nc5)cc4)CCC3)o2)cn1 [Example 16, 5-(4-{1-[5-(6-methylpyridin-3-yl)-1,3-oxazol-2-yl]cyclobutyl}phenyl)pyrimidin-2-amine] | 1400 nM | 7.1 nM
17 | Cc1cc(CN(C)C(=O)c2cccc3c(C4(c5ccc(-c6cnc(N)nc6)cc5)CCC4)c[nH]c23)no1 [Example 17, 3-{1-[4-(2-aminopyrimidin-5-yl)phenyl]cyclobutyl}-N-methyl-N-[(5-methyl-1,2-oxazol-3-yl)methyl]-1H-indole-7-carboxamide] | 250 nM | 3.4 nM
18 | Cc1ccc(-c2cc(C3(c4ccc(-c5cnc(N)nc5)cc4)CCC3)[nH]n2)cn1 [Example 18, 5-(4-{1-[5-(6-methylpyridin-3-yl)-1H-pyrazol-3-yl]cyclobutyl}phenyl)pyrimidin-2-amine] | 680 nM | 4 nM
19 | Cc1ccc(-c2cc(C3(c4ccc(-c5cnc(N)nc5)cc4)CCC3)n(C)n2)cn1 [Example 19, 5-(4-{1-[1-methyl-3-(6-methylpyridin-3-yl)-1H-pyrazol-5-yl]cyclobutyl}phenyl)pyrimidin-2-amine] | > 5000 nM | 510 nM
20 | Cc1ccc(-c2cc(C3(c4ccc(-c5cnc(N)nc5)cc4)CCC3)nn2C)cn1 [Example 20, 5-(4-{1-[1-methyl-5-(6-methylpyridin-3-yl)-1H-pyrazol-3-yl]cyclobutyl}phenyl)pyrimidin-2-amine] | 430 nM | 5.1 nM
21 | CC(C)C(C)(c1ccc(-c2cnc(N)nc2)cc1)c1nc(N2CCNCC2)no1 (stereo not shown) [Example 21, 5-[4-[1,2-dimethyl-1-(3-piperazin-1-yl-1,2,4-oxadiazol-5-yl)propyl]phenyl]pyrimidin-2-amine; formic acid] | 1600 nM | 38 nM
22 | CC(C)C(C)(c1ccc(-c2cnc(N)nc2)nc1)c1nc(-c2cnn(C)c2)no1 (stereo not shown) [Example 22, 5-(5-{3-methyl-2-[3-(1-methyl-1H-pyrazol-4-yl)-1,2,4-oxadiazol-5-yl]butan-2-yl}pyridin-2-yl)pyrimidin-2-amine] | 710 nM | 44 nM
23 | COc1cncc(-c2ccc(C(c3ncc(Br)s3)C(C)C)cc2)c1 (stereo not shown) [Example 24, 5-bromo-2-[1-[4-(5-methoxy-3-pyridyl)phenyl]-2-methyl-propyl]thiazole] | > 5000 nM | 890 nM
24 | COc1cncc(-c2ccc(C(c3ncc(-c4ccc(CO)nc4)s3)C(C)C)cc2)c1 (stereo not shown) [Example 25, [5-(2-{1-[4-(5-methoxypyridin-3-yl)phenyl]-2-methylpropyl}-1,3-thiazol-5-yl)pyridin-2-yl]methanol] | > 5000 nM | 36 nM
25 | CN(C)CCn1cc(-c2cc([C@@](C)(c3ccc(-c4cnc(N)nc4)cc3)C3CC3)no2)cn1 [Example 26, 5-{4-[(1R)-1-cyclopropyl-1-(5-{1-[2-(dimethylamino)ethyl]-1H-pyrazol-4-yl}-1,2-oxazol-3-yl)ethyl]phenyl}pyrimidin-2-amine] | 39 nM | 4.6 nM
26 | COc1cncc(-c2ccc(C(C)(c3cn(Cc4ccccn4)c4ccccc34)C(C)C)cc2)c1 (stereo not shown) [Example 27, 3-{2-[4-(5-methoxypyridin-3-yl)phenyl]-3-methylbutan-2-yl}-1-(pyridin-2-ylmethyl)-1H-indole] | 1800 nM | 20 nM
